Results published in patent US12370235B2, “Synthetic, non-natural antimicrobial peptides inspired by Staphylococcus auricularis delta toxin” (University of Saskatchewan, priority 2021, dated 2025).
Ends that are not written are not given here.

What was measured:
Candida krusei AR 397 = test: MIC, YPD broth, CDC and FDA AR Candida isolate panel; type: cell-based
How it was run: (§1)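 Inhibitory concentration was assigned over a 2-fold peptide dilution range after incubation without shaking at 37° C overnight; inoculum was set to optical density […] and water-only wells served as control.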

[1] = system: Candida lusitaniae AR 398; test: as above; type: cell-based
How it was run: as §1

[2] = system: Saccharomyces cerevisiae AR 399; test: as above; type: cell-based
How it was run: as §1

[3] = system: Saccharomyces cerevisiae AR 400; test: as above; type: cell-based
How it was run: as §1

[4] = system: Candida duobushaemulonii AR 394; test: as above; type: cell-based
How it was run: as §1

Kodamae ohmeri AR 396 = test: as above; type: cell-based
How it was run: as §1

[5] = system: Candida duobushaemulonii AR 392; test: as above; type: cell-based
How it was run: as §1

[6] = system: Candida duobushaemulonii AR 391; test: as above; type: cell-based
How it was run: as §1

C. albicans MYA-2876 = test: MIC, YPD broth; type: cell-based, Candida albicans; details: Table 8
How it was run: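 Minimum inhibitory concentrations against Candida albicans were determined in YPD broth (10 g/L yeast extract, 20 g/L peptone, 20 g/L dextrose) using peptides of 95% purity. A 180 μl volume of diluted yeast was combined with 20 μl of peptide in a 2-fold dilution series in 96-well plates, with sterile water as control, then incubated standing overnight at 37° C.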

C. albicans Y537 = test: MIC, YPD broth; type: cell-based, Candida albicans; details: Table 8
[7] = system: Mannheimia haemolytica ATCC 33393; test: MIC, broth dilution; type: cell-based; details: Table 11; highest concentration 25 μg/mL
How it was run: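 Peptides (95% purity) in 2-fold dilution series were mixed with M. haemolytica diluted to OD 6×10^−4 in cation-adjusted Mueller Hinton broth and incubated standing overnight at 37 °C. MIC was the lowest concentration with no visible growth.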

[8] = system: S. aureus ATCC BAA-2094 (MRSA SCCmec type V); test: MIC, broth dilution; type: cell-based, Staphylococcus aureus; details: Table 5; STIP3 variants, highest concentration 100 μg/mL
How it was run: (§2)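 Peptides of 95% purity tested as 2-fold dilution series against bacteria diluted to OD 6×10^−4 in cation-adjusted Mueller Hinton broth. Standing cultures incubated overnight at 37° C; MIC is the lowest concentration with no visible growth.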

[9] = system: S. aureus ATCC 33592 (MRSA SCCmec type III); test: MIC, broth dilution; type: cell-based, Staphylococcus aureus; details: Table 5; STIP3 variants, highest concentration 100 μg/mL
How it was run: as §2

S. aureus ATCC 29213 = test: MIC, broth dilution; type: cell-based, Staphylococcus aureus; details: Table 5; STIP3 variants, highest concentration 100 μg/mL
How it was run: as §2

[10] = system: S. aureus ATCC BAA-44 (MRSA SCCmec type I); test: MIC, broth dilution; type: cell-based, Staphylococcus aureus; details: Table 5; STIP3 variants, highest concentration 100 μg/mL
How it was run: as §2

[11] = system: S. aureus ATCC BAA-41 (MRSA SCCmec type II); test: MIC, broth dilution; type: cell-based, Staphylococcus aureus; details: Table 5; STIP3 variants, highest concentration 100 μg/mL
How it was run: as §2

[12] = system: S. aureus ATCC BAA-2313 (MRSA SCCmec type XI); test: MIC, broth dilution; type: cell-based, Staphylococcus aureus; details: Table 5; STIP3 variants, highest concentration 100 μg/mL
How it was run: as §2

[13] = system: S. aureus ATCC BAA-1683 (MRSA SCCmec type IV); test: MIC, broth dilution; type: cell-based, Staphylococcus aureus; details: Table 5; STIP3 variants, highest concentration 100 μg/mL
How it was run: as §2

[14] = system: S. aureus ATCC BAA-42 (MRSA SCCmec type VI); test: MIC, broth dilution; type: cell-based, Staphylococcus aureus; details: Table 5; STIP3 variants, highest concentration 100 μg/mL
How it was run: as §2

[15] = system: Candida haemulonii AR 393; test: MIC, YPD broth, CDC and FDA AR Candida isolate panel; type: cell-based
How it was run: as §1

[16] = Table 9 top part: titrations from 1.56 to 100 μg/mL
[17] = Table 9 below the line: only 200 or 100 μg/mL tested, values reported as 100 are ≤100 μg/mL

Row | Substance | MIC (μg/mL) Candida krusei AR 397 (Candida krusei AR 397; [16]) | MIC (μg/mL) Candida lusitaniae AR 398 [1, 16] | MIC (μg/mL) Saccharomyces cerevisiae AR 399 [2, 16] | MIC (μg/mL) Saccharomyces cerevisiae AR 400 [3, 16] | MIC (μg/mL) Candida duobushaemulonii AR 394 [4, 16] | MIC (μg/mL) Kodamae ohmeri AR 396 (Kodamae ohmeri AR 396; [16]) | MIC (μg/mL) Candida duobushaemulonii AR 392 [5, 16] | MIC (μg/mL) Candida duobushaemulonii AR 391 [6, 16] | MIC C. albicans MYA-2876 (C. albicans MYA-2876) | MIC C. albicans Y537 (C. albicans Y537) | MIC (μg/mL) M. haemolytica [7] | MIC S. aureus ATCC BAA 2094 (V) [8] | MIC S. aureus ATCC 33592 (III) [9] | MIC S. aureus ATCC 29213 (S. aureus ATCC 29213) | MIC S. aureus ATCC BAA 44 (I) [10] | MIC S. aureus ATCC BAA 41 (II) [11] | MIC S. aureus ATCC BAA 2313 (XI) [12] | MIC S. aureus ATCC BAA 1683 (IV) [13] | MIC S. aureus ATCC BAA 42 (VI) [14] | further results
1 | TVKALVKWILKTVAKFA [STIP3-19, TVKALVKWILKTVAKFA] | 100 µg/mL | 50 µg/mL | 100 µg/mL | 50 µg/mL | 100 µg/mL | > (MIC values reported at the top of the table (above the double line) are based on titrations from 1.56 to 100 μg/mL) | 100 µg/mL | 50 µg/mL | > (> symbol indicates that no inhibition was observed at the highest concentration of peptide tested: 100 μg/mL) | > (> symbol indicates that no inhibition was observed at the highest concentration of peptide tested: 100 μg/mL) | 12.5 µg/mL | 25 µg/mL | 25 µg/mL | 50 µg/mL | 25 µg/mL | 50 µg/mL | 25 µg/mL | 25 µg/mL | 50 µg/mL | –
2 | TVKGLVKWILNVVKKFA-NH2 [STIP3-30, TVKGLVKWILNVVKKFA-NH2] | 12.5 µg/mL | 6.25 µg/mL | 25 µg/mL | 12.5 µg/mL | 25 µg/mL | 25 µg/mL | 25 µg/mL | 12.5 µg/mL | 25 µg/mL | 50 µg/mL | 12.5 µg/mL | 25 µg/mL | 12.5 µg/mL | 12.5 µg/mL | 12.5 µg/mL | 25 µg/mL | 25 µg/mL | 12.5 µg/mL | 25 µg/mL | MIC (μg/mL) Candida haemulonii AR 393 [15, 16]: 100 µg/mL
3 | TVKALVKWILKTVAKFW-NH2 [STIP3-31, TVKALVKWILKTVAKFW-NH2] | – | – | – | – | – | – | – | – | > (> symbol indicates that no inhibition was observed at the highest concentration of peptide tested: 100 μg/mL) | > (> symbol indicates that no inhibition was observed at the highest concentration of peptide tested: 100 μg/mL) | 6.25 µg/mL | 25 µg/mL | 25 µg/mL | 25 µg/mL | 25 µg/mL | 25 µg/mL | 25 µg/mL | 25 µg/mL | 50 µg/mL | MIC (μg/mL) Candida krusei AR 397 (Candida krusei AR 397; [17]): > (values below the line were determined using two concentrations of peptide 200 or 100 μg/mL); MIC (μg/mL) Candida lusitaniae AR 398 [1, 17]: > (values below the line were determined using two concentrations of peptide 200 or 100 μg/mL); MIC (μg/mL) Saccharomyces cerevisiae AR 399 [2, 17]: > (values below the line were determined using two concentrations of peptide 200 or 100 μg/mL); MIC (μg/mL) Candida haemulonii AR 393 [15, 17]: > (values below the line were determined using two concentrations of peptide 200 or 100 μg/mL); MIC (μg/mL) Saccharomyces cerevisiae AR 400 [3, 17]: > (values below the line were determined using two concentrations of peptide 200 or 100 μg/mL); MIC (μg/mL) Candida duobushaemulonii AR 394 [4, 17]: > (values below the line were determined using two concentrations of peptide 200 or 100 μg/mL); MIC (μg/mL) Kodamae ohmeri AR 396 (Kodamae ohmeri AR 396; [17]): > (values below the line were determined using two concentrations of peptide 200 or 100 μg/mL); MIC (μg/mL) Candida duobushaemulonii AR 392 [5, 17]: > (values below the line were determined using two concentrations of peptide 200 or 100 μg/mL); MIC (μg/mL) Candida duobushaemulonii AR 391 [6, 17]: > (values below the line were determined using two concentrations of peptide 200 or 100 μg/mL)
4 | TVKALVKWILKTVAKFW [STIP3-21, TVKALVKWILKTVAKFW] | 100 µg/mL | 50 µg/mL | – | 200 µg/mL | – | > (MIC values reported at the top of the table (above the double line) are based on titrations from 1.56 to 100 μg/mL) | > (MIC values reported at the top of the table (above the double line) are based on titrations from 1.56 to 100 μg/mL) | – | > (> symbol indicates that no inhibition was observed at the highest concentration of peptide tested: 100 μg/mL) | > (> symbol indicates that no inhibition was observed at the highest concentration of peptide tested: 100 μg/mL) | 12.5 µg/mL | 12.5 µg/mL | 25 µg/mL | 25 µg/mL | 25 µg/mL | 25 µg/mL | 12.5 µg/mL | 12.5 µg/mL | 25 µg/mL | –
